Test results taken from patent US6660728B2, “Thienyl substituted acylguanidines as inhibitors of bone resorption and vitronectin receptor antagonists” (Aventis Pharma Deutschland GmbH, priority 1998, dated 2003).

What was measured:
[1] = target: T1, Human Vitronectin Receptor (VnR) αvβ3 (Homo sapiens, UniProt P05106+P06756); experiment: K/VnR test: inhibition of the binding of kistrin to human vitronectin receptor (ELISA)
T1 construct: Human vitronectin receptor was isolated from human placenta using the method of Pytela et al; from tissue; host or cells: human placenta
T1 sequence (P06756 31-889 limits assumed): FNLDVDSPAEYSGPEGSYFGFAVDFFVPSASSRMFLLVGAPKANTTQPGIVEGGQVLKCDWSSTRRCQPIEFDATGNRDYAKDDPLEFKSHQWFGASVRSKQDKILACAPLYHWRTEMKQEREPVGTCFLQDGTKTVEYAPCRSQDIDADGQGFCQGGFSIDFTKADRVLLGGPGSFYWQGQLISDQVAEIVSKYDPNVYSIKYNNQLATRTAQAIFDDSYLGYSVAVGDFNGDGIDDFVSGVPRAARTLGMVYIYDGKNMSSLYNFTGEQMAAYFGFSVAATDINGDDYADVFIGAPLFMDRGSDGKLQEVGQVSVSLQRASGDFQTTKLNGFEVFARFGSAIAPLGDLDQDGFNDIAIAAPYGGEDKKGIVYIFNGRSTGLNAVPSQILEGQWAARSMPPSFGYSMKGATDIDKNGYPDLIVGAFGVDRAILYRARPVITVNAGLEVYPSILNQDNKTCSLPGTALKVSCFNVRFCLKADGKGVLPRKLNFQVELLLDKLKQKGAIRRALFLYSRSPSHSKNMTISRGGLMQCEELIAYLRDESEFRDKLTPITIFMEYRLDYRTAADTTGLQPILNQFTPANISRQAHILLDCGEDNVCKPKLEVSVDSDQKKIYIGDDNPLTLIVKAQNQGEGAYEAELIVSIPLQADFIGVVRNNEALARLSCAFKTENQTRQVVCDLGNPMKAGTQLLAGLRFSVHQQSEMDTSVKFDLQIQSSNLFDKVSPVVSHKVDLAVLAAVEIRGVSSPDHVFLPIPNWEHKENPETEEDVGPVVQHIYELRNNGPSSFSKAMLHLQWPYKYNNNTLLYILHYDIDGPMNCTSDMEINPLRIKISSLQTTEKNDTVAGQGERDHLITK
T1 sequence (P06756 891-1048 limits assumed): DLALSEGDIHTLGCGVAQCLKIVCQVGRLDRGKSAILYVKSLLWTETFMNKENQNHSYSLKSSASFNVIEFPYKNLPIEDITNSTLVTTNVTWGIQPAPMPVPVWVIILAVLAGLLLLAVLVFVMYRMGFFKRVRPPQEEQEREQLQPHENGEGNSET
T1 sequence (P05106 27-788): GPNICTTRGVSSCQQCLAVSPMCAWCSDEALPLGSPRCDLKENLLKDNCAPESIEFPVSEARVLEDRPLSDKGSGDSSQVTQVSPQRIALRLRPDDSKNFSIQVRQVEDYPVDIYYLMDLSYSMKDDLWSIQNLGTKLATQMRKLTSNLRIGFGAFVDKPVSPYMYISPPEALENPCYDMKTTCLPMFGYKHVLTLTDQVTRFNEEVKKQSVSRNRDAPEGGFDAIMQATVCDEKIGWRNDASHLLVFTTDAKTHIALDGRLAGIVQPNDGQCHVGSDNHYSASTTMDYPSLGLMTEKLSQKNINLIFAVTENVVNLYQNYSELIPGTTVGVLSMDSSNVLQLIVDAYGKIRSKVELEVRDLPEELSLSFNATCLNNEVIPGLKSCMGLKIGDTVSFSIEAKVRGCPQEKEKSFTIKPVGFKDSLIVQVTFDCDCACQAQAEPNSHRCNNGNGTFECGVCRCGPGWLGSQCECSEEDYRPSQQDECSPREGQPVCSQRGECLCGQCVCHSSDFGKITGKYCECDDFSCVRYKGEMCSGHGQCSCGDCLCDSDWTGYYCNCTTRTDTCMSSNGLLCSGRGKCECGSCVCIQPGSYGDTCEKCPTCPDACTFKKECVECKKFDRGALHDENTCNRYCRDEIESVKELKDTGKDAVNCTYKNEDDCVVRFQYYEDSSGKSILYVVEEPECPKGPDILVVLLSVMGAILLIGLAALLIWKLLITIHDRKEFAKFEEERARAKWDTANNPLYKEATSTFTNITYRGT

Structure (SMILES)	melting point	IC50 [1] [µM]
CC(C)OC(=O)[C@H](CNC(=O)c1ccc(CCC(=O)NC2=NCCCN2)s1)NC(=O)OCC12CC3CC(CC(C3)C1)C2	160 °C (dec.)	–
O=C(O)C[C@H](NC(=O)c1ccc(CCC(=O)NC2=NCCCN2)s1)c1ccc2c(c1)OCO2	130 °C	–
O=C(/C=C/c1ccc(C(=O)NC[C@H](NC(=O)OCc2ccccc2)C(=O)O)s1)NC1=NCCCN1 [Example 14, (2S)-2-Benzyloxycarbonylamino-3-((5-(2-(1,4,5,6-tetrahydropyrimidin-2-ylcarbamoyl)-vinyl)-thiophene-2-carbonyl)-amino)-propionic Acid]	–	> 10
CC(C)COC(=O)[C@H](CNC(=O)c1ccc(CCC(=O)NC2=NCCCN2)s1)NC(=O)OCC12CC3CC(CC(C3)C1)C2	210 °C (dec.)	–
